Experiments:
Zn induced tau LLPS = biological target: T1, Zn induced tau LLPS (Homo sapiens, UniProt P10636); assay: DIC microscopy, inhibition of Zn induced tau LLPS; format: biochemical; conditions: tau 10 μM, Zn 40 μM, compound 20 μM added before Zn; Zn alone ~1.3
T1 construct: the full-length tau plasmid construct was transformed into E. coli, BL21 strain; inferred from the Ni-NTA purification; made in house; host or cells: E. coli BL21
Description: (§1) Liquid-liquid phase separation (LLPS) of tau was induced by molecular crowding in LLPS buffer (10 mM HEPES, 100 mM NaCl, 10% PEG 4000 and pH 7.4) and Zn.^32 Tau (10 μM) was suspended in LLPS buffer and added Zn (40 μM) incubate for 10 min to induce LLPS. For inhibition studies the tau in LLPS buffer was treated with small molecules (20 μM) before addition of Zn and for control same volume of vehicle (DMSO) was added. Dissolution samples were prepared by induction of LLPS for 10 min using Zn and followed by addition of small molecules and further incubation of 15 min. The samples were drop-cast (10 μL) on clean glass slides, mount with coverslip and immediately imaged in Olympus FLUOVIEW 3000 microscope in differential interface contrast (DIC) mode with 63× oil immersion objective. The images were acquired in multiple areas and planes to confirm the LLPS formation and its modulation by small molecules. Image analysis was performed by using ImageJ software, plotted normalised droplet size against control and analysed by GraphPad Prism.
(§2) The strong binding interaction of small molecules with Zn and tau encouraged us to evaluate them for modulation of Zn indued LLPS of tau. The ability of small molecules to inhibit tau LLPS and formation of droplets were studied by differential interface contrast (DIC) microscopy (FIG. 4). In the presence of Zn, tau readily undergoes LLPS and formed liquid like droplets within 10 min, as evident from the observed fusion droplets (FIG. 4A and inset). […] The inhibitory effect is in the order of 1c followed by 1b and 1a, which agrees with Zn and tau binding ability of small molecules. The LLPS of tau is through transient weak interactions and we believe that the small molecules with strong multivalent interactions with tau and Zn (chelation) potentially dissolve the phase separated droplets. […] The absorption spectra of 1c in the presence of tau and Zn (independently) and together was recorded. […]

tau protein = biological target: T2, tau protein (Homo sapiens, UniProt P10636); assay: Tau intrinsic fluorescence quenching assay; format: binding; conditions: tau 5 μM, compound 250 nM to 25 μM; for Kd: PBS pH 7.4, read-out: One site binding saturation fit Kd with tau
T2 construct: the full-length tau plasmid construct was transformed into E. coli, BL21 strain; inferred from the Ni-NTA purification; made in house; host or cells: E. coli BL21
Description: Tau protein was expressed and purified from E. coli as per known procedures. Briefly, the full-length tau plasmid construct was transformed into E. coli, BL21 strain and cultured in LB broth containing ampicillin ([…]) and chloramphenicol (50 μM) at 37° C. with continuous shaking at 180 rpm overnight. Then 1% of primary culture was transferred to 1 L of LB broth with antibiotics and incubated until it reaches OD of 0.6. The culture was induced with 1 mM IPTG and further cultured for 4 h. Cells were pelleted by centrifugation (7000 rpm) at 4° C. and resuspended in 50 mM phosphate buffer (0.3 M NaCl, 5 mM imidazole and 1 mM of PMSF, pH 8) and boiled to precipitate unwanted proteins for 10-15 min with intermittent agitation. The supernatant containing tau protein was collected and further purified by Ni-NTA affinity column chromatography. The purified tau protein was quantified by Bradford assay, characterised by SDS-PAGE and stored at −80° C. until further use.
Tau was dissolved in PBS buffer pH 7.4 to make 5 μM and titrated with small molecules from 250 nM to 25 μM concentration and fluorescence spectra was recorded by exiting at 274 nm. The emission spectra were plotted and analysed using Origin (Pro), Version 2022 and GraphPad Prism 9.4.0, fitted with one site binding saturation equation to find Kd. Further fluorescence quenching was fitted with Stern-Volmer equation to determine KSV.
The binding of small molecules with tau protein was monitored using tau intrinsic fluorescence spectral changes. […] The change in fluorescence intensity was fitted with one site binding saturation model to determine the Kd values. […] The KSV values were obtained from the Stern-Volmer equation to further quantify the extent of binding. […] This further emphasized the significance of the skeletal template of the modulators for tau interaction, rather than individual substituted aromatic amino acids.

[1] = Isothermal titration calorimetry of small molecule-Zn interaction; format: binding; conditions: for ΔG of binding to Zn, ITC / ΔH (enthalpy) of binding to Zn, ITC / −TΔS (entropy) of binding to Zn, ITC: 298 K; for ΔG / ΔH / −TΔS: Table 1, with Zn
Description: ITC measurements were performed using a Malvern MicroCal-PEAQ ITC machine. Solutions of small molecules (compounds 1a, 1b and 1c) of the present disclosure and ZnCl2 were prepared in 100% DMSO. A revolving syringe was used to inject 26 consecutive 1.5 μL aliquots of Zn^2+ into the small molecules solution to ensure a continual mixing. The ITC cell reference power and temperature were set at […] and 25° C., respectively. To guarantee complete equilibration before the next injection, an interval of 150 s was maintained between subsequent measurements. Obtained isotherms were corrected by the subtraction of heat of dilution (buffer and small molecules). By using a single site binding model in the MicroCal PEAQ-ITC analysis software, nonlinear least squares fitting of the binding isotherms was carried out to estimate the thermodynamic parameters and dissociation constant (Kd).
The thermodynamic parameters of the interactions between small molecules and Zn^2+ were determined by ITC study. ZnCl2 solution in the injection syringe was titrated into compound solution in the sample cell. The heat change was measured and plotted as a function of the molar ratio of small molecules and Zn^2+. […] Right panel depicts the integrated binding isotherms as a function of the binary complex at 298 K. Fitting was obtained from the data points with one set of the binding site model). […] The Kd values determined from ITC validate the results obtained from other binding studies discussed vide supra (lower Kd and higher KSV). Both endothermic and exothermic peaks were observed upon binding of 1c and Zn resulting in a net negative ΔH value, and the data was fitted to exothermic one site binding model. For a reaction to be spontaneous, it must be favored by at least one of the factors, enthalpy or entropy.

[2] = Steady state fluorescence Zn titration (Stern-Volmer fit); format: binding; conditions: for Stern-Volmer binding constant (KSV): Table 1, with Zn, factor 10^4; for Stern-Volmer constant KSV with Zn^2+: compound 20 μM, Zn^2+ 2.5 to 40 μM, emission 530 nm
Description: The metal chelation ability of the compounds were assessed by UV-Visible absorbance and fluorescence spectroscopy by metal titration experiments. The small molecules were dissolved in HEPES buffer to make concentration of 20 μM and the metal ion (Zn^2+) was titrated with increasing concentration from 2.5 μM to 40 μM with 2 min of incubation between each addition. The change in absorbance and fluorescence spectra of compound was recorded and analysed for metal-small molecules interaction. The data was plotted in Origin (Pro), Version 2022 and analysed for determination of dissociation constant. The absorbance values were fitted using Benesi-Hildebrand equation to elucidate the binding constant of metals with small molecules.
where, KB is the binding or association constant, and A0 and Aα represent the peak absorbance of small molecules in the absence and presence of the highest concentration of metal ion (40 μM). The reciprocal of KB was taken as the dissociation constant, Kd. The change in fluorescence was fitted using Stern-Volmer equation to determine KSV: […]
where, F0 and F are the fluorescence intensities of small molecules in the absence and presence of metal ion, respectively. KSV is the Stern-Volmer quenching constant and [Q] is the concentration of quencher/enhancer (metal ion in this case).
Fluorescence spectroscopy is a reliable method to probe host-probe interactions, wherein the change in wavelength or intensity of emission spectrum is indicative of the strength of complexation. […] The classical Stern-Volmer equation was used to quantify the quenching and measure the Stern-Volmer constant, KSV wherein a higher value of KSV implies ability of the compound to form strong complexation with the host (Zn^2+). […] Due to the good binding affinity of the small molecules towards Zn, the designed small molecules were anticipated to chelate and interfere tau-Zn interaction.

tau and Zn = biological target: T3, tau and Zn (Homo sapiens, UniProt P10636); assay: UV-Visible spectroscopy, preferential binding among tau and Zn; conditions: absorption spectra with tau, Zn and both
T3 construct: the full-length tau plasmid construct was transformed into E. coli, BL21 strain; inferred from the Ni-NTA purification; made in house; host or cells: E. coli BL21
Description: as §2, with “droplets. To evaluate the reversal effect of small molecules on phase separated droplets, tau LLPS was induced (10 min) and treated with small molecules for 15 min followed by visualization by DIC imaging. […] The droplet size was reduced to less than control in case of 1c treated samples (˜0.66-fold) indicating its ability to inhibit Zn induced tau LLPS. The modulatory effect of 1c prompted to look for its preferential interaction among tau and Zn.” for “droplets.”

[3] = biological target: T4, Zn induced tau LLPS condensates (Homo sapiens, UniProt P10636); assay: DIC microscopy, dissolution of phase separated tau condensates; format: biochemical; conditions: LLPS induced 10 min with Zn, then compound 15 min; Zn alone 2.26
T4 construct: the full-length tau plasmid construct was transformed into E. coli, BL21 strain; inferred from the Ni-NTA purification; made in house; host or cells: E. coli BL21
Description: as §1, §2

T2 sequence (P10636 1-441 isoform P10636-8): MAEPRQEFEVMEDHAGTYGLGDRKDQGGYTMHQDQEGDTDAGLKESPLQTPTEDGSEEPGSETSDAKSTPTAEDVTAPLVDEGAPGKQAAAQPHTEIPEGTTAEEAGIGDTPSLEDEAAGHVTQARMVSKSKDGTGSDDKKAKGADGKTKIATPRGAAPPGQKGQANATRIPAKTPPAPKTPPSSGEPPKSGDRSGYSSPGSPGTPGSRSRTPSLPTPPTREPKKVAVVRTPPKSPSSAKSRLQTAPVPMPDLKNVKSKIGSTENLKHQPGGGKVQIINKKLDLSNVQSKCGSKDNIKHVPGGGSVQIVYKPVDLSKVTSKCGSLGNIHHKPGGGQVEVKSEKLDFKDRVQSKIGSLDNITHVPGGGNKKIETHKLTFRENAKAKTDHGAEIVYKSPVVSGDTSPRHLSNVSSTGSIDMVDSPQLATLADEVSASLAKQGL
T4 sequence (P10636 1-441 isoform P10636-8): as above
T1 sequence (P10636 1-441 isoform P10636-8): as above
T3 sequence (P10636 1-441 isoform P10636-8): as above

droplet size (normalized to control), inhibition of LLPS (Zn induced tau LLPS) [fold] | Stern-Volmer KSV with tau (tau protein) [M⁻¹] | Kd (tau protein) [µM] | ΔG of binding to Zn, ITC [1] [kcal/mol] | ΔH (enthalpy) of binding to Zn, ITC [1] [kcal/mol] | −TΔS (entropy) of binding to Zn, ITC [1] [kcal/mol] | Stern-Volmer binding constant (KSV) [2] [× × 10^4] | droplet size (normalized to control), dissolution of condensates [3] [fold] | ΔH (enthalpy) of binding to Zn, ITC ([1]; unit not given) | −TΔS (entropy) of binding to Zn, ITC ([1]; unit not given) | SMILES | ΔG ([1]; unit not given) | ΔH ([1]; unit not given) | −TΔS ([1]; unit not given) | Stern-Volmer constant KSV with Zn^2+ [2] | preferential interaction among tau and Zn (tau and Zn)
~1 | 150000 | 3.95 ± 0.32 | -6.45 | -0.698 ± 0.223 | -5.75 | 1.7 | ~0.66 |  |  | O=C1N[C@@H](Cc2c[nH]c3ccccc23)C(=O)N[C@H]1CCCCN1C(=O)c2cccc3c(N(Cc4ccccn4)Cc4ccccn4)ccc(c23)C1=O [Compound 1c, 2-(4-((2S,5S)-5-((1H-indol-3-yl)methyl)-3,6-dioxopiperazin-2-yl)butyl)-6-(bis(pyridin-2-ylmethyl)amino)-1H-benzo[de]isoquinoline-1,3(2H)-dione] | −6.45 | −0.693 | −5.75 | 1.7×10^4 | preferential interaction of 1c with tau over Zn
~1.12 | 160000 | 1.74 ± 0.17 | -5.78 | -0.551 ± 0.056 | -5.23 | 1.7 | ~1.6 |  |  | O=C1N[C@@H](Cc2ccc(O)cc2)C(=O)N[C@H]1CCCCN1C(=O)c2cccc3c(N(Cc4ccccn4)Cc4ccccn4)ccc(c23)C1=O [Compound 1b, 6-(bis(pyridin-2-ylmethyl)amino)-2-(4-((2S,5S)-5-(4-hydroxybenzyl)-3,6-dioxopiperazin-2-yl)butyl)-1H-benzo[de]isoquinoline-1,3(2H)-dione] | −5.78 | −0.551 | −5.23 | 1.7×10^4 | 
~1.19 | 190000 | 2.88 ± 0.51 | -3.48 |  |  | 0.06 | ~1.1 | −13.1±0.13 | 9.59 | O=C1N[C@@H](Cc2ccccc2)C(=O)N[C@H]1CCCCN1C(=O)c2cccc3c(N(Cc4ccccn4)Cc4ccccn4)ccc(c23)C1=O [Compound 1a, 2-(4-((2S,5S)-5-benzyl-3,6-dioxopiperazin-2-yl)butyl)-6-(bis(pyridin-2-ylmethyl)amino)-1H-benzo[de]isoquinoline-1,3(2H)-dione] | −3.48 | −13.1 | 9.59 | 0.06×10^4 | 
